Source: patent US5095006A, “Renin inhibitors having all retro-inverted peptide bonds” (Bayer Aktiengesellschaft, priority 1989, dated 1992)

Biological target: T1, endogenous renin from human plasma (Homo sapiens, UniProt P00797)
T1 construct: rate of formation of angiotensin I from endogenous angiotensinogen and renin; from tissue; host or cells: pooled human plasma (EDTA)
T1 sequence (P00797 67-406): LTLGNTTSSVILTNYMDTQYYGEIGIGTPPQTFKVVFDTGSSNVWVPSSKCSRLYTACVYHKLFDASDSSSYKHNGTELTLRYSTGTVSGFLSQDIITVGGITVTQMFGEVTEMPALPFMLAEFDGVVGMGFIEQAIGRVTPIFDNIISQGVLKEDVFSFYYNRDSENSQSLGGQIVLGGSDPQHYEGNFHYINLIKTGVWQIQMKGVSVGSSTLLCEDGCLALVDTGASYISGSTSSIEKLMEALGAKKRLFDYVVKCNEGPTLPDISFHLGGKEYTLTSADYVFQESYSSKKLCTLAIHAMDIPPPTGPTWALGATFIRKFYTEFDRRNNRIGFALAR
Assay: In vitro test: inhibition of plasma renin activity (angiotensin I formation, radioimmunoassay)
Assay type: biochemical
Settings: pooled human plasma, 37° C., pH 5.6
Description: The plasma renin activity (PRA) is determined by incubation at 37° C. as the rate of formation of angiotensin I from endogenous angiotensinogen and renin. […] The angiotensin I formed per unit of time is determined by radioimmunoassay (Sorin Biomedica, Italy).
The percentage inhibition of the plasma renin activity is calculated by comparison […].

Row | Compound | Inhibition at 0.05 mg/ml [%]
1 | COC(=O)[C@@H](Cc1ccccc1)NC(=O)[C@@H](Cc1cnc[nH]1)NC(=O)C(Cc1ccccc1)C(O)CN(Cc1ccccc1)C(=O)Cc1cccnc1 (stereo partly drawn) [Example 103, 4-[N-Benzyl-N-(3-pyridyl)acetyl]amino-2-R,S-benzyl-3-R,S-hydroxybutyryl-D-histidyl-D-phenylalanine methyl ester] | 88%
2 | CC(C)(C)OC(=O)N(Cc1ccccc1)C[C@H](O)[C@@H](Cc1ccccc1)C(=O)N[C@H](Cc1c[nH]cn1)C(=O)N[C@H](Cc1ccccc1)C(=O)N1CCOCC1 [Example 77, 4-(N-tert.-Butoxycarbonyl-N-benzyl)amino-2-R,S-benzyl-3-R,S-hydroxybutyryl-D-histidyl-D-phenylalanine-(N-morpholino)amide] | 100%
3 | O=C(O)[C@@H](Cc1ccccc1)NC(=O)[C@@H](Cc1c[nH]cn1)NC(=O)[C@H](Cc1ccccc1)[C@@H](O)CN1C(=O)c2ccccc2C1=O [Example 71, 4-(N-Phthalyl)amino-2-R,S-benzyl-3R,S-hydroxybutyryl-D-histidyl-D-phenylalanine] | 92%
4 | O=C(N[C@H](Cc1cnc[nH]1)C(=O)N[C@H](Cc1ccccc1)C(=O)OCc1ccccc1)C(Cc1ccccc1)C(O)CN1C(=O)c2ccccc2C1=O (stereo partly drawn) [Example 70, 4-(N-Phthalyl)amino-2-R,S-benzyl-3R,S-hydroxybutyryl-D-histidyl-D-phenylalanine benzyl ester] | 100%
5 | CC(C)CNC(=O)[C@@H](Cc1ccccc1)NC(=O)[C@@H](Cc1cnc[nH]1)NC(=O)C(Cc1ccccc1)C(O)CNC(=O)c1ccccc1C(=O)O (stereo partly drawn) [Example 90, 4-[N-(2-Carboxy)benzoyl]amino-2-R,S-benzyl-3-R,S-hydroxybutyryl-D-histidyl-D-phenylalanine-(2-methyl) propylamide] | 63%
6 | O=C(NC1CCCC1)[C@@H](Cc1ccccc1)NC(=O)[C@@H](Cc1c[nH]cn1)NC(=O)[C@H](Cc1ccccc1)[C@@H](O)CN1C(=O)c2ccccc2C1=O [Example 72, 4-(N-Phthalyl)amino-2-R,S-benzyl-3R,S-hydroxybutyryl-D-histidyl-D-phenylalanine(cyclopentyl)amide] | 100%
7 | CC(C)(C)OC(=O)N(Cc1ccccc1)CC(O)C(Cc1ccccc1)C(=O)N[C@H](Cc1cnc[nH]1)C(=O)N[C@H](Cc1ccccc1)C(=O)O (stereo partly drawn) [Example 76, 4-(N-tert.-Butoxycarbonyl-N-benzyl)amino-2-R,S-benzyl-3-R,S-hydroxybutyryl-D-histidyl-D-phenylalanine] | 78%
8 | CC(C)CNC(=O)[C@@H](Cc1ccccc1)NC(=O)[C@@H](Cc1c[nH]cn1)NC(=O)[C@H](Cc1ccccc1)[C@@H](O)CNC(=O)OC(C)(C)C [Example 78, (N-tert.-Butoxycarbonyl)amino-2-R,S-benzyl-3-R,S-hydroxybutyryl-D-histidyl-D-phenylalanine-(2-methylpropyl)amide] | 100%
9 | CC(C)(C)OC(=O)N(Cc1ccccc1)CC(O)C(Cc1ccccc1)C(=O)N[C@H](Cc1c[nH]cn1)C(=O)O (stereo partly drawn) [Example 74, 4-(N-tert.-Butoxycarbonyl-N-benzyl)amino-2-R,S-benzyl-3-R,S-hydroxybutyryl-D-histidine] | 93%
